Data reported in patent US10898469B2, “Imidazolylamide derivative” (Sumitomo Dainippon Pharma Co., Ltd., priority 2016, dated 2021).
Read-outs that look alike come from different tables or passages of the source.

Key:
Format in all cases: cell-based, human
HCT-116 cells = assay: Inhibition test for sphere-forming ability of cancer cells (Test Example 1), HCT-116; conditions: for IC50: HCT-116 cells, concentration for 50% inhibition of cell proliferation, read-out: IC50 (μmol/L) HCT-116 (Sphere IC50 value); for inhibitory effect on the sphere-forming ability of cancer cells: Test Example 1, summary in words, cell line not given (HCT-116, HT-29, FaDu tested)
Text: (§1) The reliable methods established for measuring the self-renewal ability of cells which is one of the CSC's properties include a method for measuring the sphere-forming ability of cancer cells in non-adherent condition in the absence of serum (Cancer Res 65, 5506-5511 (2005)). Human colorectal cancer-derived HCT-116 cells, human colon-adenocarcinoma-derived HT-29 cells, and human pharyngeal cancer-derived FaDu cells were available from American Type Culture Collection (ATCC). HCT-116 cells and HT-29 cells were cultured at 37° C. under 5% CO2 using the McCoy's 5a medium containing 10% fetal bovine serum (FBS) and 1% penicillin/streptomycin, and FaDu cells were cultured at 37° C. under 5% CO2 using the MEM medium containing 10% FBS, 1% non-essential amino acid, 1% sodium pyruvate, and 1% penicillin/streptomycin. HCT-116 cells, HT-29 cells, and FaDu cells were seeded in a 384 Well Black Clear Bottom Ultra-Low Attachment Microplate (Corning Cat. No. 3827) in an amount of 350-800 cells/well using the DMEM/F12 medium containing 2% B27 supplement (GIBCO), 20 ng/mL epidermal growth factor (EGF) (peprotech), 10 ng/mL basic fibroblast growth factor (bFGF) (peprotech), 5 μg/mL insulin (Sigma), and 1% penicillin/streptomycin. Each test compound was added into each well to adjust the final concentration of DMSO to 0.1%, and the cells were cultured for 4 days. The number of viable cells in each well was then measured with CellTiter-Glo® Luminescent Cell Viability Assay (Promega) to calculate the concentration of each test compound for 50% inhibition of cell proliferation (Sphere IC50 value; μmol/L).
(§2) The experiment of Test Example 1 was performed for each compound of each Example. The concentration of each test compound for 50% inhibition of cell proliferation (Sphere IC50 value; μmol/L) is shown in the following Table.

HT-29 cells = assay: Inhibition test for sphere-forming ability of cancer cells (Test Example 1), HT-29; conditions: concentration for 50% inhibition of cell proliferation, read-out: IC50 (μmol/L) HT-29 (Sphere IC50 value)
Text: as §1, §2

FaDu cells = assay: Inhibition test for sphere-forming ability of cancer cells (Test Example 1), FaDu; conditions: concentration for 50% inhibition of cell proliferation, read-out: IC50 (μmol/L) FaDu (Sphere IC50 value)
Text: as §1, §2

| IC50 (HCT-116 cells; Homo sapiens) [µmol/L] | IC50 (HT-29 cells; Homo sapiens) [µmol/L] | IC50 (FaDu cells; Homo sapiens) [µmol/L] | IC50 (HCT-116 cells) [µmol/L] | IC50 (HT-29 cells) [µmol/L] | IC50 (FaDu cells) [µmol/L] | Structure (SMILES) | inhibitory effect on the sphere-forming ability of cancer cells (HCT-116 cells) |
| --- | --- | --- | --- | --- | --- | --- | --- |
| 7.05 | 6.65 | 0.66 | – | – | – | O=C(/C=C/c1ccc(O)c(O)c1)Nc1cn(Cc2cccc(Cl)c2)cn1 [Example 21, (E)-N-(1-(3-Chlorobenzyl)-1H-imidazol-4-yl)-3-(3,4-dihydroxyphenyl)acrylamide] | – |
| 7.42 | > 10 | 5.97 | – | – | – | COc1cc(/C=C/C(=O)Nc2cn(Cc3cccc(Cl)c3)cn2)ccc1O [Example 24] | – |
| > 10 | 2.61 | 0.89 | – | – | – | COC(=O)c1ccc(/C=C/C(=O)Nc2cn(Cc3cccc(Cl)c3)cn2)cn1 [Example 25, Methyl (E)-5-(3-((1-(3-chlorobenzyl)-1H-imidazol-4-yl)amino)-3-oxoprop-1-en-1-yl)picolinate] | – |
| 5.87 | 0.89 | 0.76 | – | – | – | COCCOc1cc(/C=C/C(=O)Nc2cn(Cc3cccc(Cl)c3)cn2)ccc1OC [Example 29, (E)-N-(1-(3-Chlorobenzyl)-1H-imidazol-4-yl)-3-(4-methoxy-3-(2-methoxyethoxy)phenyl)acrylamide] | – |
| > 10 | > 10 | 0.71 | – | – | – | COc1ccc(/C=C/C(=O)Nc2cn(Cc3cccc(Cl)c3)cn2)cc1OCC(N)=O [Example 30] | – |
| 0.96 | 0.7 | 5.77 | – | – | – | O=C(/C=C/c1cncc(F)c1)Nc1cn(Cc2cccc(Cl)c2)cn1 [Example 42, (E)-N-(1-(3-Chlorobenzyl)-1H-imidazol-4-yl)-3-(5-fluoropyridin-3-yl)acrylamide] | – |
| 6.38 | 0.88 | 0.81 | – | – | – | O=C(/C=C/c1cncc(Br)c1)Nc1cn(Cc2cccc(Cl)c2)cn1 [Example 45] | – |
| – | – | – | 0.1 | 0.06 | 0.08 | Cc1ccc(/C=C/C(=O)Nc2cn(Cc3cccc(Cl)c3)cn2)cc1 [Example 49] | particularly potent inhibitory effect |
| – | – | – | 0.87 | 0.84 | 0.87 | COc1ccc(OC)c(/C=C/C(=O)Nc2cn(Cc3cccc(Cl)c3)cn2)c1 [Example 53] | – |
| – | – | – | 5.74 | 6.62 | 4.5 | O=C(/C=C/c1cccc(Br)c1)Nc1cn(Cc2cccc(Cl)c2)cn1 [Example 56] | – |
| – | – | – | 0.94 | 3.3 | 4.36 | O=C(/C=C/c1cccc(F)c1)Nc1cn(Cc2cccc(Cl)c2)cn1 [Example 57] | – |
| – | – | – | 6.99 | 4.89 | 6.52 | O=C(/C=C/c1cccc(Cl)c1)Nc1cn(Cc2cccc(Cl)c2)cn1 [Example 58] | – |
| – | – | – | 7.78 | 0.79 | 0.86 | O=C(/C=C/c1ccc(Cl)c(Cl)c1)Nc1cn(Cc2cccc(Cl)c2)cn1 [Example 59] | – |
| – | – | – | 9.79 | 0.69 | 0.59 | CCOc1cccc(/C=C/C(=O)Nc2cn(Cc3cccc(Cl)c3)cn2)c1 [Example 64] | – |
| – | – | – | 0.95 | 2.66 | 0.06 | O=C(/C=C/c1cccc(O)c1)Nc1cn(Cc2cccc(Cl)c2)cn1 [Example 65] | particularly potent inhibitory effect |
| – | – | – | 0.09 | 0.07 | 0.06 | COc1ccc(/C=C/C(=O)Nc2cn(Cc3cccc(Cl)c3)cn2)cc1OC [Example 66] | particularly potent inhibitory effect |
| – | – | – | 7.34 | 8.37 | 0.79 | COc1cc(/C=C/C(=O)Nc2cn(Cc3cccc(Cl)c3)cn2)cc(OC)c1O [Example 67] | – |
| – | – | – | 0.23 | 0.03 | 0.06 | COc1ccc(/C=C/C(=O)Nc2cn(Cc3cccc(Cl)c3)cn2)c(OC)c1 [Example 71] | particularly potent inhibitory effect |
| – | – | – | 4.53 | 1.49 | 0.85 | Cc1cccc(/C=C/C(=O)Nc2cn(Cc3cccc(Cl)c3)cn2)c1 [Example 73] | – |
| – | – | – | 7.56 | 6.45 | 7.19 | COc1cc(/C=C/C(=O)Nc2cn(Cc3cccc(Cl)c3)cn2)c([N+](=O)[O-])cc1OC [Example 75] | – |

More lines, now with the values behind:

| Structure (SMILES) | IC50 (HCT-116 cells; Homo sapiens) [µmol/L] | IC50 (HT-29 cells; Homo sapiens) [µmol/L] | IC50 (FaDu cells; Homo sapiens) [µmol/L] | IC50 (HCT-116 cells) [µmol/L] | IC50 (HT-29 cells) [µmol/L] | IC50 (FaDu cells) [µmol/L] | inhibitory effect on the sphere-forming ability of cancer cells (HCT-116 cells) |
| --- | --- | --- | --- | --- | --- | --- | --- |
| CCNC(=O)c1ccc(/C=C/C(=O)Nc2cn(Cc3cccc(Cl)c3)cn2)cn1 [Example 26, (E)-5-(3-((1-(3-Chlorobenzyl)-1H-imidazol-4-yl)amino)-3-oxoprop-1-en-1-yl)-N-ethylpicolinamide] | > 10 | 5.83 | 5.49 | – | – | – | – |
| CCCCNC(=O)c1ccc(/C=C/C(=O)Nc2cn(Cc3cccc(Cl)c3)cn2)cn1 [Example 27] | > 10 | 3.38 | 5.84 | – | – | – | – |
| O=C(/C=C/c1ccc(C(=O)N2CCCC2)nc1)Nc1cn(Cc2cccc(Cl)c2)cn1 [Example 28] | 7.89 | 0.91 | 0.8 | – | – | – | – |
| O=C(Nc1cn(Cc2cccc(Cl)c2)cn1)/C(F)=C/c1cccnc1 [Example 43, (Z)—N-(1-(3-Chlorobenzyl)-1H-imidazol-4-yl)-2-fluoro-3-(pyridin-3-yl)acrylamide] | 0.85 | 0.49 | 0.69 | – | – | – | – |
| O=C(/C=C/c1ccc(C(F)(F)F)nc1)Nc1cn(Cc2cccc(Cl)c2)cn1 [Example 44] | 0.1 | 0.05 | 0.07 | – | – | – | – |
| O=C(/C=C/c1ccc2[nH]ccc2c1)Nc1cn(Cc2cccc(Cl)c2)cn1 [Example 47, (E)-N-(1-(3-Chlorobenzyl)-1H-imidazol-4-yl)-3-(1H-indol-5-yl)acrylamide] | 0.89 | 0.7 | 0.76 | – | – | – | – |
| O=C(/C=C/c1ccc(C(F)(F)F)cc1)Nc1cn(Cc2cccc(Cl)c2)cn1 [Example 48, (E)-N-(1-(3-Chlorobenzyl)-1H-imidazol-4-yl)-3-(4-(trifluoromethyl)phenyl)acrylamide] | 0.76 | 0.08 | 0.09 | – | – | – | – |
| O=C(/C=C/c1ccccc1F)Nc1cn(Cc2cccc(Cl)c2)cn1 [Example 50] | – | – | – | 2.48 | 0.89 | 6.7 | – |
| O=C(/C=C/c1ccccc1Cl)Nc1cn(Cc2cccc(Cl)c2)cn1 [Example 51] | – | – | – | 7.2 | 3.75 | 6.13 | – |
| O=C(/C=C/c1ccccc1O)Nc1cn(Cc2cccc(Cl)c2)cn1 [Example 54] | – | – | – | 8.38 | 8.11 | 0.82 | – |
| O=C(/C=C/c1ccccc1C(F)(F)F)Nc1cn(Cc2cccc(Cl)c2)cn1 [Example 55] | – | – | – | 0.96 | 1.2 | 3.77 | – |
| O=C(/C=C/c1cccc(C(F)(F)F)c1)Nc1cn(Cc2cccc(Cl)c2)cn1 [Example 60] | – | – | – | > 10 | 9.79 | 8.2 | – |
| O=C(/C=C/c1ccc(Br)cc1)Nc1cn(Cc2cccc(Cl)c2)cn1 [Example 61] | – | – | – | 0.09 | 0.02 | 0.07 | particularly potent inhibitory effect |
| O=C(/C=C/c1ccc(F)cc1)Nc1cn(Cc2cccc(Cl)c2)cn1 [Example 62] | – | – | – | 0.74 | 0.09 | 0.56 | – |
| CN(C)c1ccc(/C=C/C(=O)Nc2cn(Cc3cccc(Cl)c3)cn2)cc1 [Example 63] | – | – | – | 0.53 | 0.07 | 0.08 | – |
| O=C(/C=C/c1ccc([N+](=O)[O-])cc1)Nc1cn(Cc2cccc(Cl)c2)cn1 [Example 68] | – | – | – | 0.07 | < 0.01 | 0.01 | particularly potent inhibitory effect |
| O=C(/C=C/c1ccc(F)cc1F)Nc1cn(Cc2cccc(Cl)c2)cn1 [Example 69] | – | – | – | 0.82 | 0.38 | 0.54 | – |
| O=C(/C=C/c1ccc(-c2ccccc2)cc1)Nc1cn(Cc2cccc(Cl)c2)cn1 [Example 70] | – | – | – | 8.98 | 0.08 | 0.09 | – |
| Cc1ccccc1/C=C/C(=O)Nc1cn(Cc2cccc(Cl)c2)cn1 [Example 72] | – | – | – | 4.42 | 0.09 | 0.29 | – |
| CCOc1ccc(/C=C/C(=O)Nc2cn(Cc3cccc(Cl)c3)cn2)cc1 [Example 74] | – | – | – | 0.05 | < 0.01 | < 0.01 | particularly potent inhibitory effect |
